pIC50: −log10 of the molar value. “And” between values parts separate entries of the source, which are not always exact repeats. Identical values can stand only once. Values belong to the molecule of their own block, whether it stands above or below them.
System: 885512-296-R-J2-PDC complex spheroid viability
Assay: Anticancer human tumor 885512-296-R-J2-PDC patient-derived breast carcinoma cell line growth inhibition
Conditions: for viability, T/C: stronger effect = lower value
How it was run: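 Drug combinations with the LSD1 inhibitor iadademstat tested on tumor cells co-cultured as spheroids with endothelial cells and mesenchymal stem cells. Concentrations descended in half-log increments from clinical Cmax or 10 microM.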

[1] = curve of first compound, second compound 0.1 µM
[2] = curve of first compound, second compound 0.316 µM
[3] = curve of first compound, second compound 1 µM
[4] = curve of first compound, second compound 3.16 µM
[5] = curve of first compound, second compound 10 µM
[6] = second compound 0.1 µM, first compound 0.00316 µM
[7] = second compound 0.1 µM, first compound 0.01 µM
[8] = second compound 0.1 µM, first compound 0.0316 µM
[9] = second compound 0.1 µM, first compound 0.1 µM
[10] = second compound 0.316 µM, first compound 0.00316 µM
[11] = second compound 0.316 µM, first compound 0.01 µM
[12] = second compound 0.316 µM, first compound 0.0316 µM
[13] = second compound 0.316 µM, first compound 0.1 µM
[14] = second compound 1 µM, first compound 0.00316 µM
[15] = second compound 1 µM, first compound 0.01 µM
[16] = second compound 1 µM, first compound 0.0316 µM
[17] = second compound 1 µM, first compound 0.1 µM
[18] = second compound 3.16 µM, first compound 0.00316 µM
[19] = second compound 3.16 µM, first compound 0.01 µM
[20] = second compound 3.16 µM, first compound 0.0316 µM
[21] = second compound 3.16 µM, first compound 0.1 µM
[22] = second compound 10 µM, first compound 0.00316 µM
[23] = second compound 10 µM, first compound 0.01 µM
[24] = second compound 10 µM, first compound 0.0316 µM
[25] = second compound 10 µM, first compound 0.1 µM
[26] = second compound 0.1 µM, first compound 0.316 µM
[27] = second compound 0.1 µM, first compound 1 µM
[28] = second compound 0.316 µM, first compound 0.316 µM
[29] = second compound 0.316 µM, first compound 1 µM
[30] = second compound 1 µM, first compound 0.316 µM
[31] = second compound 1 µM, first compound 1 µM
[32] = second compound 3.16 µM, first compound 0.316 µM
[33] = second compound 3.16 µM, first compound 1 µM
[34] = second compound 10 µM, first compound 0.316 µM
[35] = second compound 10 µM, first compound 1 µM
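Also: spheroids exposed to agents for 7 days before viability read.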

SMILES: Cn1ncnc1C1c2n[nH]c(=O)c3cc(F)cc(c23)NC1c1ccc(F)cc1 (stereo unspecified) + NC1CCC(NC2CC2c2ccccc2)CC1
pIC50 [1]: 7.80
pIC50 [2]: 7.60
pIC50 [3]: 7.56
pIC50 [4]: 7.56
pIC50 [5]: 7.85
viability, T/C (second compound 0.1 µM, first compound 0.000316 µM): 140%
viability, T/C (second compound 0.1 µM, first compound 0.001 µM): 105%
viability, T/C [6]: 77.6%
viability, T/C [7]: 67.2%
viability, T/C [8]: 37.7%
viability, T/C [9]: 10.2%
viability, T/C (second compound 0.316 µM, first compound 0.000316 µM): 122%
viability, T/C (second compound 0.316 µM, first compound 0.001 µM): 113%
viability, T/C [10]: 81.6%
viability, T/C [11]: 79%
viability, T/C [12]: 44%
viability, T/C [13]: 13.3%
viability, T/C (second compound 1 µM, first compound 0.000316 µM): 108%
viability, T/C (second compound 1 µM, first compound 0.001 µM): 105%
viability, T/C [14]: 89.6%
viability, T/C [15]: 76.7%
viability, T/C [16]: 44.6%
viability, T/C [17]: 28.5%
viability, T/C (second compound 3.16 µM, first compound 0.000316 µM): 106%
viability, T/C (second compound 3.16 µM, first compound 0.001 µM): 104%
viability, T/C [18]: 86.1%
viability, T/C [19]: 75.2%
viability, T/C [20]: 44.5%
viability, T/C [21]: 28.6%
viability, T/C (second compound 10 µM, first compound 0.000316 µM): 92%
viability, T/C (second compound 10 µM, first compound 0.001 µM): 85%
viability, T/C [22]: 72%
viability, T/C [23]: 56.8%
viability, T/C [24]: 36%
viability, T/C [25]: 18.6%

SMILES: CC1COCCN1c1cc(C2(S(C)(=N)=O)CC2)nc(-c2ccnc3[nH]ccc23)n1 (stereo unspecified) + NC1CC1c1ccc(-c2cccc(O)c2)cc1
pIC50 [1]: 6.30
pIC50 [2]: 6.33
pIC50 [3]: 6.47
pIC50 [4]: 6.39
pIC50 [5]: 6.67
viability, T/C [8]: 110%
viability, T/C [9]: 116%
viability, T/C [26]: 76.1%
viability, T/C [27]: 11.1%
viability, T/C (second compound 0.1 µM, first compound 3.16 µM): 3.64%
viability, T/C (second compound 0.1 µM, first compound 10 µM): 2.7%
viability, T/C [12]: 139%
viability, T/C [13]: 112%
viability, T/C [28]: 72.3%
viability, T/C [29]: 10.7%
viability, T/C (second compound 0.316 µM, first compound 3.16 µM): 3.33%
viability, T/C (second compound 0.316 µM, first compound 10 µM): 2.63%
viability, T/C [16]: 118%
viability, T/C [17]: 113%
viability, T/C [30]: 52.3%
viability, T/C [31]: 8.24%
viability, T/C (second compound 1 µM, first compound 3.16 µM): 3.25%
viability, T/C (second compound 1 µM, first compound 10 µM): 2.72%
viability, T/C [20]: 114%
viability, T/C [21]: 101%
viability, T/C [32]: 63.1%
viability, T/C [33]: 9.16%
viability, T/C (second compound 3.16 µM, first compound 3.16 µM): 3.38%
viability, T/C (second compound 3.16 µM, first compound 10 µM): 2.43%
viability, T/C [24]: 79.9%
viability, T/C [25]: 76.5%
viability, T/C [34]: 37%
viability, T/C [35]: 8.1%
viability, T/C (second compound 10 µM, first compound 3.16 µM): 3.13%
viability, T/C (second compound 10 µM, first compound 10 µM): 2.67%

pIC50 (curve of compound): 8.27 and > 8.50
SMILES: COc1cc(Nc2ncc3c(n2)-c2ccc(Cl)cc2C(c2c(F)cccc2OC)=NC3)ccc1C(=O)O
viability, T/C (compound 0.00316 µM): 63.8% and 24.6%
viability, T/C (compound 0.01 µM): 32.3% and 28.3%
viability, T/C (compound 0.0316 µM): 23% and 22.3%
viability, T/C (compound 0.1 µM): 31.3% and 21%
viability, T/C (compound 0.316 µM): 14.5% and 18.3%
viability, T/C (compound 1 µM): 12% and 14.3%

pIC50 (curve of compound): 7.80 and 7.42
SMILES: Cn1ncnc1C1c2n[nH]c(=O)c3cc(F)cc(c23)NC1c1ccc(F)cc1 (stereo unspecified)
viability, T/C (compound 0.000316 µM): 113% and 78.9%
viability, T/C (compound 0.001 µM): 96.4% and 90.1%
viability, T/C (compound 0.00316 µM): 81.5% and 89.5%
viability, T/C (compound 0.01 µM): 58.5% and 70.7%
viability, T/C (compound 0.0316 µM): 36.5% and 55.6%
viability, T/C (compound 0.1 µM): 15.5% and 29.8%

SMILES: CCN(c1cc(-c2ccc(CN3CCOCC3)cc2)cc(C(=O)NCc2c(C)cc(C)[nH]c2=O)c1C)C1CCOCC1 + NC1CCC(NC2CC2c2ccccc2)CC1
pIC50 [1]: 5.74
pIC50 [2]: 5.76
pIC50 [3]: 5.65
pIC50 [4]: 5.68
pIC50 [5]: < 5.52
viability, T/C (second compound 0.1 µM, first compound 0.00949 µM): 118%
viability, T/C (second compound 0.1 µM, first compound 0.03 µM): 135%
viability, T/C (second compound 0.1 µM, first compound 0.0949 µM): 104%
viability, T/C (second compound 0.1 µM, first compound 0.3 µM): 117%
viability, T/C (second compound 0.1 µM, first compound 0.949 µM): 98.6%
viability, T/C (second compound 0.1 µM, first compound 3 µM): 12.3%
viability, T/C (second compound 0.316 µM, first compound 0.00949 µM): 131%
viability, T/C (second compound 0.316 µM, first compound 0.03 µM): 114%
viability, T/C (second compound 0.316 µM, first compound 0.0949 µM): 127%
viability, T/C (second compound 0.316 µM, first compound 0.3 µM): 94.5%
viability, T/C (second compound 0.316 µM, first compound 0.949 µM): 79.1%
viability, T/C (second compound 0.316 µM, first compound 3 µM): 26.1%
viability, T/C (second compound 1 µM, first compound 0.00949 µM): 135%
viability, T/C (second compound 1 µM, first compound 0.03 µM): 107%
viability, T/C (second compound 1 µM, first compound 0.0949 µM): 122%
viability, T/C (second compound 1 µM, first compound 0.3 µM): 87.2%
viability, T/C (second compound 1 µM, first compound 0.949 µM): 80.2%
viability, T/C (second compound 1 µM, first compound 3 µM): 39.9%
viability, T/C (second compound 3.16 µM, first compound 0.00949 µM): 141%
viability, T/C (second compound 3.16 µM, first compound 0.03 µM): 125%
viability, T/C (second compound 3.16 µM, first compound 0.0949 µM): 106%
viability, T/C (second compound 3.16 µM, first compound 0.3 µM): 102%
viability, T/C (second compound 3.16 µM, first compound 0.949 µM): 78.3%
viability, T/C (second compound 3.16 µM, first compound 3 µM): 35.8%
viability, T/C (second compound 10 µM, first compound 0.00949 µM): 110%
viability, T/C (second compound 10 µM, first compound 0.03 µM): 95.4%
viability, T/C (second compound 10 µM, first compound 0.0949 µM): 85.8%
viability, T/C (second compound 10 µM, first compound 0.3 µM): 82.7%
viability, T/C (second compound 10 µM, first compound 0.949 µM): 78.5%
viability, T/C (second compound 10 µM, first compound 3 µM): 55%

SMILES: CC1COCCN1c1cc(-c2ccnn2C)c2ccnc(-c3ccn[nH]3)c2n1 (stereo unspecified) + NC1CC1c1ccc(-c2cccc(O)c2)cc1
pIC50 [1]: > 8.50
pIC50 [2]: > 8.50
pIC50 [3]: > 8.50
pIC50 [4]: > 8.50
pIC50 [5]: > 8.50
viability, T/C [6]: 3.29%
viability, T/C [7]: 2.63%
viability, T/C [8]: 2.05%
viability, T/C [9]: 1.94%
viability, T/C [26]: 2.98%
viability, T/C [27]: 3.66%
viability, T/C [10]: 4.19%
viability, T/C [11]: 3.06%
viability, T/C [12]: 2.44%
viability, T/C [13]: 2%
viability, T/C [28]: 3.18%
viability, T/C [29]: 4.22%
viability, T/C [14]: 3.96%
viability, T/C [15]: 3.23%
viability, T/C [16]: 2.3%
viability, T/C [17]: 2.21%
viability, T/C [30]: 3.06%
viability, T/C [31]: 4.25%
viability, T/C [18]: 2.66%
viability, T/C [19]: 2.58%
viability, T/C [20]: 1.89%
viability, T/C [21]: 2.1%
viability, T/C [32]: 2.93%
viability, T/C [33]: 4.29%
viability, T/C [22]: 3.44%
viability, T/C [23]: 2.73%
viability, T/C [24]: 1.93%
viability, T/C [25]: 2.12%
viability, T/C [34]: 2.49%
viability, T/C [35]: 4.01%

pIC50 (curve of compound): 6.40 and 6.09
SMILES: O=C(c1cc(Cc2n[nH]c(=O)c3ccccc23)ccc1F)N1CCN(C(=O)C2CC2)CC1
viability, T/C (compound 0.0316 µM): 81.2% and 95.5%
viability, T/C (compound 0.1 µM): 92.8% and 89.7%
viability, T/C (compound 0.316 µM): 57.2% and 74.8%
viability, T/C (compound 1 µM): 17.2% and 46.9%
viability, T/C (compound 3.16 µM): 10.2% and 11.8%
viability, T/C (compound 10 µM): 7.83% and 6.41%
